Data on five molecules can be found in patent US9624206B2, “Antibacterial 1H-indazole and 1H-indole derivatives” (priority 2013, dated 2017).

≈ marks a conversion by molar mass, not a printed value. Read-outs that look alike come from different tables or passages of the source.

Format in all cases: cell-based
One experiment deals with wild-type E. coli A-1261. In words: MIC against wild-type E. coli A-1261 with or without alkaline phosphatase or esterase. As to conditions: Escherichia coli. The protocol:
Minimal Inhibitory Concentrations (MICs; mg/L) were determined in cation-adjusted Mueller-Hinton Broth by a microdilution method following the description given in “Methods for Dilution Antimicrobial Susceptibility Tests for Bacteria that Grow Aerobically”, Approved standard, 7th ed., Clinical and Laboratory Standards Institute (CLSI) Document M7-A7, Wayne, Pa., USA (2006). The compounds of Examples 48 and 49 were tested against wild-type E. coli A-1261 in the absence of alkaline phosphatase or esterase, in the presence of an alkaline phosphatase and in the presence of an esterase. The corresponding antibacterial test results are given in Table 2 hereafter (MICs in mg/L).

In a further experiment the test system is K. pneumoniae A-651. In words: Bacterial growth minimal inhibitory concentration (microdilution, CLSI M7-A7). As to conditions: Klebsiella pneumoniae, A651; multiply-resistant strain (in particular quinolone-resistant); cation-adjusted Mueller-Hinton Broth. In a few lines:
(§1)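 Broth microdilution in cation-adjusted Mueller-Hinton broth per CLSI M7-A7, with MICs in mg/L. K. pneumoniae A-651 and A. baumannii T6474 are multiply resistant, including to quinolones. E. coli ATCC25922 and P. aeruginosa ATCC27853 are quinolone-sensitive.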
Background: In broth dilution the organism is exposed to a series of concentrations in liquid medium.

Another experiment concerns E. coli ATCC25922. The description is as above. As to conditions: Escherichia coli, ATCC25922; quinolone-sensitive strain; cation-adjusted Mueller-Hinton Broth. Put shortly:
as §1

The subject of another experiment is P. aeruginosa ATCC27853. The experiment is described as above. To be noted: Pseudomonas aeruginosa, ATCC27853; quinolone-sensitive strain; cation-adjusted Mueller-Hinton Broth. Put shortly:
as §1

In experiment [1] the test system is Acinetobacter baumannii T6474. The description is as above. To be noted: Acinetobacter baumannii, T6474; multiply-resistant strain (in particular quinolone-resistant); cation-adjusted Mueller-Hinton Broth. In a few lines: as §1
Where [2] appears, read: read-out: MIC for E. coli A-1261 In the absence of alkaline phosphatase or esterase.
[3] abbreviates: read-out: MIC for E. coli A-1261 In the presence of an alkaline phosphatase (2 i.U./mL).
Where [4] appears, read: read-out: MIC for E. coli A-1261 In the presence of an esterase (10 i.U./mL).

As for `CN(C)CC(=O)OCC1(c2ccc(C#Cc3ccc4c(cnn4CC[C@](C)(C(=O)NO)S(C)(=O)=O)c3)cc2)CC1.O=CO` [Example 49, (R)-(1-(4-((1-(4-(hydroxyamino)-3-methyl-3-(methylsulfonyl)-4-oxobutyl)-1H-indazol-5-yl)ethynyl)phenyl)cyclopropyl)methyl dimethylglycinate formate], the MIC in the experiment on wild-type E. coli A-1261 (setting [2]) was 1 µg/mL; with wild-type E. coli A-1261 (setting [3]), 1 µg/mL; with wild-type E. coli A-1261 (setting [4]), 0.125 µg/mL; with K. pneumoniae A-651 it was 2 µg/mL; against E. coli ATCC25922, 1 µg/mL; against P. aeruginosa ATCC27853 it was 16 µg/mL. The MIC in experiment [1] was determined as 2 µg/mL.

Turning to `C[C@@](CCn1ncc2cc(C#Cc3ccc(C4(COP(=O)(O)O)CC4)cc3)ccc21)(C(=O)NO)S(C)(=O)=O` [Example 48, (R)-(1-(4-((1-(4-(hydroxyamino)-3-methyl-3-(methylsulfonyl)-4-oxobutyl)-1H-indazol-5-yl)ethynyl)phenyl)cyclopropyl)methyl dihydrogen phosphate], the MIC stood at 16 µg/mL in the experiment on wild-type E. coli A-1261 (setting [2]), 1 µg/mL in the experiment on wild-type E. coli A-1261 (setting [3]) and 16 µg/mL with wild-type E. coli A-1261 (setting [4]).

Take `CC(CCn1ncc2cc(C#Cc3ccc(CN4CCOCC4)cc3)ccc21)(C(=O)NO)S(C)(=O)=O.Cc1ccc(S(=O)(=O)O)cc1` (racemic) [RE5, (RS)—N-hydroxy-2-methyl-2-(methylsulfonyl)-4-(5-((4-(morpholinomethyl)phenyl)ethynyl)-1H-indazol-1-yl)butanamide 4-toluenesulfonic acid salt]: the MIC against K. pneumoniae A-651 was 0.5 µg/mL; with E. coli ATCC25922, 0.5 µg/mL; against P. aeruginosa ATCC27853, 16 µg/mL; in experiment [1], 32 µg/mL.

As to `C[C@@](CCn1ncc2c(F)c(C#CC#C[C@H]3C[C@@H]3CO)ccc21)(C(=O)NO)S(C)(=O)=O` [Example 31, (R)-4-(4-fluoro-5-(((1S,2S)-2-(hydroxymethyl)cyclopropyl)buta-1,3-diyn-1-yl)-1H-indazol-1-yl)-N-hydroxy-2-methyl-2-(methylsulfonyl)butanamide], the MIC was at most 0.063 µg/mL in the experiment with K. pneumoniae A-651, at most 0.063 µg/mL with E. coli ATCC25922, 0.5 µg/mL (≈ 1.12 µM) against P. aeruginosa ATCC27853 and 1 µg/mL (≈ 2.23 µM) in experiment [1].

As for `C[C@@](CCn1ncc2cc(C#CC#CC3(CO)CC3)ccc21)(C(=O)NO)S(C)(=O)=O` [Example 34, (R)—N-hydroxy-4-(5-((1-(hydroxymethyl)cyclopropyl)buta-1,3-diyn-1-yl)-1H-indazol-1-yl)-2-methyl-2-(methylsulfonyl)butanamide], the MIC with K. pneumoniae A-651 was found to be 0.5 µg/mL (≈ 1.16 µM); against E. coli ATCC25922 it was 0.25 µg/mL (≈ 0.582 µM); against P. aeruginosa ATCC27853, 1 µg/mL (≈ 2.33 µM); in experiment [1], 16 µg/mL (≈ 37.3 µM).
